# Laboratory results from patent publication US9645128B2, “Substituted imidazo[1,2-A]pyrazines for measuring a transcription activity” (JNC CORPORATION, priority 2009, dated 2017).
# Target: T1, 19 kDa protein of Oplophorus luciferase (Oplophorus gracilirostris, UniProt Q9GV45)
# T1 construct: made in house
# Assay: Substrate specificity, luminescence activity and emission spectra of the 19 kDa protein of Oplophorus luciferase
# Type: biochemical, Oplophorus gracilorostris
# Conditions: Oplophorus luciferase, 22 to 25° C.
# T1 sequence (Q9GV45 28-196): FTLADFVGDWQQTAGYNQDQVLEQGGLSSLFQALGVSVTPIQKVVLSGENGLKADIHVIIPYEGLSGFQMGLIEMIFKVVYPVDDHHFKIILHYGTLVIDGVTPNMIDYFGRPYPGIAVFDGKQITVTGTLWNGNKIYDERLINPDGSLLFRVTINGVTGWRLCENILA
row,Compound,Maximum emission wavelength λmax (nm)
1,"Cc1ccc(Cc2nc3c(Cc4ccccc4)[nH]c(-c4ccc(O)cc4)cn-3c2=O)cc1 [me-CTZ, me-coelenterazine]",454.4
2,et-coelenterazine [et-CTZ],454.0
3,"Cc1cccc(Cc2nc3c(Cc4ccccc4)[nH]c(-c4ccc(O)cc4)cn-3c2=O)c1 [3me-CTZ, 3me-coelenterazine]",455.5
4,"O=c1c(Cc2ccc(C(F)(F)F)cc2)nc2c(Cc3ccccc3)[nH]c(-c3ccc(O)cc3)cn1-2 [cf3-CTZ, cf3-coelenterazine]",450.5

# Same assay, conditions: Oplophorus luciferase, TABLE 2
row,Compound,Luminescence activity and/or capacity compared to known h-CTZ
1,"Cc1cccc(Cc2nc3c(Cc4ccccc4)[nH]c(-c4ccc(O)cc4)cn-3c2=O)c1 [3me-CTZ, 3me-coelenterazine]",high luminescence activity and/or luminescence capacity

# Same assay, conditions: Oplophorus luciferase, emission integrated for 10 seconds; coelenterazine = 100.0
row,Compound,Luminescence capacity 10 secs. (%)
1,"Cc1ccc(Cc2nc3c(Cc4ccccc4)[nH]c(-c4ccc(O)cc4)cn-3c2=O)cc1 [me-CTZ, me-coelenterazine]",82.7
2,et-coelenterazine [et-CTZ],39.5
3,"Cc1cccc(Cc2nc3c(Cc4ccccc4)[nH]c(-c4ccc(O)cc4)cn-3c2=O)c1 [3me-CTZ, 3me-coelenterazine]",122.8
4,"O=c1c(Cc2ccc(C(F)(F)F)cc2)nc2c(Cc3ccccc3)[nH]c(-c3ccc(O)cc3)cn1-2 [cf3-CTZ, cf3-coelenterazine]",68.2

# Same assay, conditions: Oplophorus luciferase; coelenterazine = 100.0
row,Compound,Luminescence activity Imax (%)
1,"Cc1ccc(Cc2nc3c(Cc4ccccc4)[nH]c(-c4ccc(O)cc4)cn-3c2=O)cc1 [me-CTZ, me-coelenterazine]",46.6
2,et-coelenterazine [et-CTZ],21.1
3,"Cc1cccc(Cc2nc3c(Cc4ccccc4)[nH]c(-c4ccc(O)cc4)cn-3c2=O)c1 [3me-CTZ, 3me-coelenterazine]",80.0
4,"O=c1c(Cc2ccc(C(F)(F)F)cc2)nc2c(Cc3ccccc3)[nH]c(-c3ccc(O)cc3)cn1-2 [cf3-CTZ, cf3-coelenterazine]",49.5

# Same assay, conditions: TABLE 2
row,Compound,Quality as luminescence substrate for Oplophorus luciferase
1,"Cc1ccc(Cc2nc3c(Cc4ccccc4)[nH]c(-c4ccc(O)cc4)cn-3c2=O)cc1 [me-CTZ, me-coelenterazine]",relatively good luminescence substrates
2,et-coelenterazine [et-CTZ],relatively good luminescence substrates
3,"Cc1cccc(Cc2nc3c(Cc4ccccc4)[nH]c(-c4ccc(O)cc4)cn-3c2=O)c1 [3me-CTZ, 3me-coelenterazine]",relatively good luminescence substrates
4,"O=c1c(Cc2ccc(C(F)(F)F)cc2)nc2c(Cc3ccccc3)[nH]c(-c3ccc(O)cc3)cn1-2 [cf3-CTZ, cf3-coelenterazine]",relatively good luminescence substrates

# Target: T2, Renilla luciferase (Renilla reniformis, UniProt P27652)
# T2 construct: made in house
# T2 sequence (P27652 1-311): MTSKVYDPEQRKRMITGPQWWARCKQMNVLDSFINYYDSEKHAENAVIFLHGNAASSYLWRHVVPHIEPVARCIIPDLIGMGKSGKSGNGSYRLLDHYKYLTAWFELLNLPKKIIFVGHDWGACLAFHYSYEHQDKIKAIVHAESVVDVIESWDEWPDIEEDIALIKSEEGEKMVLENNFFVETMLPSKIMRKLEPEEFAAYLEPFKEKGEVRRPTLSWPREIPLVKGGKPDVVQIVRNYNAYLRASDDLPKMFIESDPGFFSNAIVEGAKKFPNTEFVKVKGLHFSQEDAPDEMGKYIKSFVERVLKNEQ
# Assay: Substrate specificity, luminescence activity and emission spectra of Renilla luciferase
# Type: biochemical
# Conditions: Renilla luciferase, 22 to 25° C.
# Source text: Res. Commun. (1997) 233: 349-353, which was provided for use.
row,Compound,Maximum emission wavelength λmax (nm)
1,"Cc1ccc(Cc2nc3c(Cc4ccccc4)[nH]c(-c4ccc(O)cc4)cn-3c2=O)cc1 [me-CTZ, me-coelenterazine]",472.0
2,et-coelenterazine [et-CTZ],471.0
3,"Cc1cccc(Cc2nc3c(Cc4ccccc4)[nH]c(-c4ccc(O)cc4)cn-3c2=O)c1 [3me-CTZ, 3me-coelenterazine]",471.5
4,"O=c1c(Cc2ccc(C(F)(F)F)cc2)nc2c(Cc3ccccc3)[nH]c(-c3ccc(O)cc3)cn1-2 [cf3-CTZ, cf3-coelenterazine]",474.5

# Same assay, conditions: Renilla luciferase; coelenterazine = 100.0
Compound,Luminescence activity Imax (%),Luminescence capacity 10 secs. (%)
"Cc1ccc(Cc2nc3c(Cc4ccccc4)[nH]c(-c4ccc(O)cc4)cn-3c2=O)cc1 [me-CTZ, me-coelenterazine]",6.6,7.0
et-coelenterazine [et-CTZ],0.5,0.3
"Cc1cccc(Cc2nc3c(Cc4ccccc4)[nH]c(-c4ccc(O)cc4)cn-3c2=O)c1 [3me-CTZ, 3me-coelenterazine]",12.7,13.1
"O=c1c(Cc2ccc(C(F)(F)F)cc2)nc2c(Cc3ccccc3)[nH]c(-c3ccc(O)cc3)cn1-2 [cf3-CTZ, cf3-coelenterazine]",0.8,0.8

# Same assay, conditions: TABLE 4
row,Compound,Ability to act as substrate for Renilla luciferase
1,"Cc1ccc(Cc2nc3c(Cc4ccccc4)[nH]c(-c4ccc(O)cc4)cn-3c2=O)cc1 [me-CTZ, me-coelenterazine]",can be substrates for Renilla luciferase

# Test system: not given
# Assay: not given
# Conditions: not given
row,Compound,melting point
1,"Cc1ccc(Cc2nc3c(Cc4ccccc4)[nH]c(-c4ccc(O)cc4)cn-3c2=O)cc1 [me-CTZ, me-coelenterazine]",150 to 152 °C (dec.)
2,"Cc1cccc(Cc2nc3c(Cc4ccccc4)[nH]c(-c4ccc(O)cc4)cn-3c2=O)c1 [3me-CTZ, 3me-coelenterazine]",142 to 145 °C (dec.)
3,"O=c1c(Cc2ccc(C(F)(F)F)cc2)nc2c(Cc3ccccc3)[nH]c(-c3ccc(O)cc3)cn1-2 [cf3-CTZ, cf3-coelenterazine]",157 to 161 °C (dec.)

# Target: T3, recombinant apoaequorin (Aequorea victoria, UniProt P07164)
# Assay: Luminescence patterns and half decay time of semi-synthetic aequorins
# Type: biochemical
# Set-up: purchased Chisso Corporation
# Conditions: semi-synthetic aequorin (FIG. 2, TABLE 1)
# Experimental: The dilution was dispensed into a 96-well microplate (Nunc #236108) in 5 μl/well. […] The luminescence patterns for 60 seconds were measured to determine the half decay time of luminescence (time period to reach the half of the maximum luminescence intensity).
# T3 sequence (P07164 other isoform, or with tags, fused parts or gaps with the stated changes): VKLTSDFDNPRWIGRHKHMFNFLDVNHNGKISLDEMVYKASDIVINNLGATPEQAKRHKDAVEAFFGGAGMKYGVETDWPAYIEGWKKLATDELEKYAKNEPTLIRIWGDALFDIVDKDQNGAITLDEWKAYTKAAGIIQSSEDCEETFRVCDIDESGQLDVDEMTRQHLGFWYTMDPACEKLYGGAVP
row,Compound,Half decay time of luminescence compared with CTZ
1,"Cc1ccc(Cc2nc3c(Cc4ccccc4)[nH]c(-c4ccc(O)cc4)cn-3c2=O)cc1 [me-CTZ, me-coelenterazine]",longer than CTZ
2,"O=c1c(Cc2ccc(C(F)(F)F)cc2)nc2c(Cc3ccccc3)[nH]c(-c3ccc(O)cc3)cn1-2 [cf3-CTZ, cf3-coelenterazine]",longer than CTZ

# Same assay, conditions: semi-synthetic aequorin; time to reach half of the maximum luminescence intensity
row,Compound,Half decay time sec. [s]
1,"n-coelenterazine [n-CTZ, reference compound]",4.71
2,"Cc1ccc(Cc2nc3c(Cc4ccccc4)[nH]c(-c4ccc(O)cc4)cn-3c2=O)cc1 [me-CTZ, me-coelenterazine]",5.00
3,et-coelenterazine [et-CTZ],1.21
4,"Cc1cccc(Cc2nc3c(Cc4ccccc4)[nH]c(-c4ccc(O)cc4)cn-3c2=O)c1 [3me-CTZ, 3me-coelenterazine]",0.51
5,"O=c1c(Cc2ccc(C(F)(F)F)cc2)nc2c(Cc3ccccc3)[nH]c(-c3ccc(O)cc3)cn1-2 [cf3-CTZ, cf3-coelenterazine]",5.95

# Target: T3, recombinant apoaequorin
# Assay: Calcium standard curve with semi-synthetic aequorins
# Type: biochemical
# Set-up: purchased Chisso Corporation
# Conditions: Imax versus 10^-3 M to 10^-8 M calcium
# Experimental: The dilution series was prepared by the serial process above to prepare standard calcium solution of 10^−3 M to 10^−8 M.
# The semi-synthetic aequorin obtained was concentrated using Amicon Ultra-4 (manufactured by Millipore, molecular weight cut off, 10.000).
# This semi-synthetic aequorin solution (2.5 mg/ml) was diluted with 20 mM Tris-HCl (pH 7.6) containing 0.1% BSA (manufactured by Sigma), 0.01 mM EDTA and 150 mM NaCl.
# The calcium standard solution prepared as described above was dispensed into a 96-well microplate (Nunc #236108) in 50 μl/well, and the semi-synthetic aequorin solution diluted was injected in […]. The luminescence intensity was measured for 60 seconds using a luminescence plate reader Centro LB960 (manufactured by Berthold) and expressed in terms of the maximum luminescence intensity (Imax). The luminescence intensity was measured for each semi-synthetic aequorin in the same fashion. Based on the maximum luminescence intensity (Imax) obtained, the calcium standard curve for each semi-synthetic aequorin was prepared.
row,Compound,Calcium standard curve with semi-synthetic aequorin (FIG. 4)
1,"Cc1ccc(Cc2nc3c(Cc4ccccc4)[nH]c(-c4ccc(O)cc4)cn-3c2=O)cc1 [me-CTZ, me-coelenterazine]",calcium standard curves can be prepared
2,et-coelenterazine [et-CTZ],calcium standard curves can be prepared
3,"Cc1cccc(Cc2nc3c(Cc4ccccc4)[nH]c(-c4ccc(O)cc4)cn-3c2=O)c1 [3me-CTZ, 3me-coelenterazine]",calcium standard curves can be prepared
4,"O=c1c(Cc2ccc(C(F)(F)F)cc2)nc2c(Cc3ccccc3)[nH]c(-c3ccc(O)cc3)cn1-2 [cf3-CTZ, cf3-coelenterazine]",calcium standard curves can be prepared

# Target: T3, recombinant apoaequorin
# Assay: Emission spectra of semi-synthetic aequorins by addition of calcium ions
# Conditions: compared to h-CTZ and i-CTZ
# Experimental: In a quartz cell with an optical path length of 10 mm, 1 ml of 50 mM Tris-HCl (pH 7.6) containing 1 mM EDTA and 100 μl (100 μg protein) of a solution of the regenerated semi-synthetic aequorin were charged and they were mixed. Subsequently, 100 μl of 50 mM Tris-HCl (pH 7.6) containing 0.1 ml of 10 mM calcium chloride solution was added to the mixture to trigger the luminescence reaction. The spectra were measured on a spectrofluorimeter (FP-6500, manufactured by JASCO Corporation) with the excitation source turned off. The measurement conditions used were as follows: band width, 20 nm; response, 0.5 second and scan speed, 2000 nm/min at 22 to 25° C.
row,Compound,Emission spectra of semi-synthetic aequorins compared with known analogs (FIG. 3)
1,"Cc1ccc(Cc2nc3c(Cc4ccccc4)[nH]c(-c4ccc(O)cc4)cn-3c2=O)cc1 [me-CTZ, me-coelenterazine]",exhibit different emission spectra from those of known coelenterazine analogs
2,et-coelenterazine [et-CTZ],exhibit different emission spectra from those of known coelenterazine analogs
3,"Cc1cccc(Cc2nc3c(Cc4ccccc4)[nH]c(-c4ccc(O)cc4)cn-3c2=O)c1 [3me-CTZ, 3me-coelenterazine]",exhibit different emission spectra from those of known coelenterazine analogs
4,"O=c1c(Cc2ccc(C(F)(F)F)cc2)nc2c(Cc3ccccc3)[nH]c(-c3ccc(O)cc3)cn1-2 [cf3-CTZ, cf3-coelenterazine]",exhibit different emission spectra from those of known coelenterazine analogs

# Same assay, conditions: semi-synthetic aequorin, 22 to 25° C.
row,Compound,Maximum emission wavelength λmax (nm)
1,"n-coelenterazine [n-CTZ, reference compound]",467.0
2,"Cc1ccc(Cc2nc3c(Cc4ccccc4)[nH]c(-c4ccc(O)cc4)cn-3c2=O)cc1 [me-CTZ, me-coelenterazine]",469.5
3,et-coelenterazine [et-CTZ],472.0
4,"Cc1cccc(Cc2nc3c(Cc4ccccc4)[nH]c(-c4ccc(O)cc4)cn-3c2=O)c1 [3me-CTZ, 3me-coelenterazine]",466.0
5,"O=c1c(Cc2ccc(C(F)(F)F)cc2)nc2c(Cc3ccccc3)[nH]c(-c3ccc(O)cc3)cn1-2 [cf3-CTZ, cf3-coelenterazine]",473.5

# Test system: Gaussia luciferase
# Assay: Substrate specificity, luminescence activity and emission spectra of Gaussia luciferase
# Conditions: Gaussia luciferase; coelenterazine = 100.0
# Experimental: The luminescence activity was measured for 10 seconds using a luminometer Luminescencer-PSN AB2200 (manufactured by Atto Co., Ltd.). The luminescence activity was measured 3 times and expressed as the maximum intensity (Imax) of luminescence.
Compound,Luminescence activity Imax (%),Luminescence capacity 10 secs. (%)
"Cc1ccc(Cc2nc3c(Cc4ccccc4)[nH]c(-c4ccc(O)cc4)cn-3c2=O)cc1 [me-CTZ, me-coelenterazine]",4.5,5.9
et-coelenterazine [et-CTZ],0.9,1.1
"Cc1cccc(Cc2nc3c(Cc4ccccc4)[nH]c(-c4ccc(O)cc4)cn-3c2=O)c1 [3me-CTZ, 3me-coelenterazine]",2.6,2.1
"O=c1c(Cc2ccc(C(F)(F)F)cc2)nc2c(Cc3ccccc3)[nH]c(-c3ccc(O)cc3)cn1-2 [cf3-CTZ, cf3-coelenterazine]",0.8,0.7

# Same assay, conditions: TABLE 3
row,Compound,Quality as luminescence substrate for Gaussia luciferase
1,"Cc1ccc(Cc2nc3c(Cc4ccccc4)[nH]c(-c4ccc(O)cc4)cn-3c2=O)cc1 [me-CTZ, me-coelenterazine]",effective luminescence substrates

# Target: T3, recombinant apoaequorin
# Assay: Production of semi-synthetic aequorins and measurement of luminescence activity (Imax, luminescence capacity)
# Conditions: regeneration 0.5 to 18 hours at 4° C.
# Experimental: In order to confirm the regeneration time and regeneration efficiency from apoaequorin to the semi-synthetic aequorin, the luminescence activity was assayed at the respective points of the regeneration process (at the respective points of 0.5, 1, 1.5, 2, 3 and 18 hours from the start of regeneration).
# Specifically, the luminescence activity described above was measured as follows. The luminescence reaction was started by adding 100 μl of 50 mM Tris-HCl (pH 7.6) containing 50 mM calcium chloride solution to 2 μl of a solution of the semi-synthetic aequorin at each regeneration process. The luminescence activity was measured for 10 seconds with a luminometer Luminescencer-PSN AB2200 (manufactured by Atto Co., Ltd.). The measured values were represented as the maximum intensity (Imax) of luminescence. The emission for 60 seconds was integrated, which was made a luminescence capacity.
row,Compound,Ability to act as luminescence substrate for semi-synthetic aequorins (FIG. 1)
1,"Cc1ccc(Cc2nc3c(Cc4ccccc4)[nH]c(-c4ccc(O)cc4)cn-3c2=O)cc1 [me-CTZ, me-coelenterazine]",can be luminescence substrates for semi-synthetic aequorins
2,et-coelenterazine [et-CTZ],can be luminescence substrates for semi-synthetic aequorins
3,"Cc1cccc(Cc2nc3c(Cc4ccccc4)[nH]c(-c4ccc(O)cc4)cn-3c2=O)c1 [3me-CTZ, 3me-coelenterazine]",can be luminescence substrates for semi-synthetic aequorins
4,"O=c1c(Cc2ccc(C(F)(F)F)cc2)nc2c(Cc3ccccc3)[nH]c(-c3ccc(O)cc3)cn1-2 [cf3-CTZ, cf3-coelenterazine]",can be luminescence substrates for semi-synthetic aequorins

# Same assay, conditions: semi-synthetic aequorin, Ca2+-triggered, maximum intensity; coelenterazine = 100.0
row,Compound,Luminescence activity Imax (%)
1,"n-coelenterazine [n-CTZ, reference compound]",3.6
2,et-coelenterazine [et-CTZ],27.3

# Same assay, conditions: semi-synthetic aequorin, emission integrated for 60 seconds; coelenterazine = 100.0
row,Compound,Luminescence capacity 60 sec (%)
1,"n-coelenterazine [n-CTZ, reference compound]",24.0
2,et-coelenterazine [et-CTZ],44.1
